# Source: US20210087217A1, “NUCLEOTIDE HEMI-SULFATE SALT FOR THE TREATMENT OF HEPATITIS C VIRUS” (Atea Pharmaceuticals, Inc., priority 2017, published 2021)
# Assays:
# [1] = biological target: human mitochondrial RNA-dependent RNA polymerase (POLRMT) (Homo sapiens, UniProt O00411); experiment: Incorporation of nucleotide analog triphosphates by human mitochondrial RNA polymerase; type: biochemical; details: incorporation by human mitochondrial RNA polymerase
# Method: The incorporation of these analogs by human mitochondrial RNA-dependent RNA polymerase (POLRMT) were determined according to Arnold et al. (Sensitivity of Mitochondrial Transcription and Resistance of RNA Polymerase II Dependent Nuclear Transcription to Antiviral Ribonucleotides. PLoS Pathog., 2012, 8, e1003030).
# [2] = Plasma profiles of Compound 2 metabolites in rats; details: male, Sprague-Dawley, rat, plasma, po, 500 mg/kg
# Method: The results for a single 500 mg/kg dose in rats is shown in FIG. 17 and the results for a single 30, 100, or 300 mg/kg dose in monkeys is shown in FIG. 18.
# [3] = Single ascending dose study of Compound 2 in healthy volunteers (Part A): safety, tolerability, pharmacokinetic; type: in vivo, human; details: both sexes, human, in vivo
# Method: Compound 2 was tested in a single ascending dose (SAD) study to measure its safety, tolerability, and pharmacokinetic in healthy subjects (Part A). Part A was a randomized, double-blind, placebo-controlled SAD study. Healthy subjects in Part A received a single dose of Compound 2 or placebo in the fasting state. Subjects were confined to the clinic from Day −1 to Day 6.
# Dosing in each cohort was staggered such that 2 subjects (1 active:1 placebo) were evaluated for 48 hours after dosing before the remainder of the cohort was dosed. Each cohort received Compound 2 in ascending order. Dosing of sequential cohorts occurred based on review of available safety data (through Day 5) and plasma pharmacokinetic data (through 24 h) of the prior cohort.
# As pharmacokinetic and safety data emerged from prior cohorts, doses evaluated in Cohorts 3a-4a were adjusted by increments no more than 100 mg.
# Healthy volunteers in the Part A portion of the study were male and female subjects between the ages of 18 and 65. Active and placebo recipients were pooled within each Part A cohort to preserve the study blind.
# (§1) Pharmacokinetic of Compound 1 and nucleoside metabolite 1-7 were measured following the single dose of Compound 2. […] Values are reported as mean±SD, except or Tmax where median (range) is reported.
# [4] = Single ascending dose study of Compound 2 in GT1-HCV infected patients (Part B): safety, tolerability, pharmacokinetic; type: in vivo, human; details: for AUC / Cmax / half-life: mean±SD
# Method: Subjects in Part B received a single dose of Compound 2 in the fasting state. Patients were confined to the clinic from Day −1 to Day 6.
# Part B was initiated after the safety (through Day 5) and plasma pharmacokinetic (through 24 h) data review from Cohort 3a in Part A. Available safety data (through Day 5) and pharmacokinetic data (through 24 h) was reviewed for the first cohort in Part B (Cohort 1b) before enrolling subsequent Part B cohorts. Subsequent Part B cohorts were only dosed following review of available safety and pharmacokinetic data from the respective doses in Part A as well as available safety (through Day 5) from the prior Part B cohorts.
# Patients infected with HCV were treatment-naïve, non-cirrhotic GT1-infected subjects with a viral load of ≥5 log10 IU/mL.
# as §1
# Plasma exposure of Compound 1 was dose-related while exposure of metabolite 1-7 was dose-proportional.
# [5] = Head-to-head comparison of plasma levels in dogs dosed with Compound 1 and Compound 2; type: in vivo, dog; details: dosed Compound 1 25 mg/kg or Compound 2 30 mg/kg, normalized to a dose of 25 mg/kg
# Method: A head-to-head comparison of dogs dosed with Compound 1 and Compound 2 was conducted.
# [6] = Solubility in biorelevant test medias (water, SGF, FaSSIF, FeSSIF)
# [7] = system: replicons containing the NS5B sequences from HCV patient plasma samples (GT1a, 1b, 2a, 2b, 3a-1, 3a-2, 4a and 4d); experiment: Replicons containing NS5B sequences from HCV patient plasma samples (clinical isolates); type: cell-based; details: clinical isolates of GT1, GT2, GT3, and GT4, FIG. 24
# in vitro = details: rat
# [8] = Plasma profiles of Compound 2 metabolites in monkeys; type: in vivo, cynomolgus monkeys; details: cynomolgus monkey, plasma, po
# [9] = human, in vivo, 100 mg, GT1-HCV infected patients, Compound 2 100 mg
# [10] = human, in vivo, 300 mg, GT1-HCV infected patients, Compound 2 300 mg (first 300 mg line)
# [11] = human, in vivo, 300 mg, GT1-HCV infected patients, Compound 2 300 mg (second 300 mg line)
# [12] = human, in vivo, 400 mg, GT1-HCV infected patients, Compound 2 400 mg
# [13] = human, in vivo, 600 mg, GT1-HCV infected patients, Compound 2 600 mg
# Chain of human mitochondrial RNA-dependent RNA polymerase (POLRMT) (O00411 42-1230): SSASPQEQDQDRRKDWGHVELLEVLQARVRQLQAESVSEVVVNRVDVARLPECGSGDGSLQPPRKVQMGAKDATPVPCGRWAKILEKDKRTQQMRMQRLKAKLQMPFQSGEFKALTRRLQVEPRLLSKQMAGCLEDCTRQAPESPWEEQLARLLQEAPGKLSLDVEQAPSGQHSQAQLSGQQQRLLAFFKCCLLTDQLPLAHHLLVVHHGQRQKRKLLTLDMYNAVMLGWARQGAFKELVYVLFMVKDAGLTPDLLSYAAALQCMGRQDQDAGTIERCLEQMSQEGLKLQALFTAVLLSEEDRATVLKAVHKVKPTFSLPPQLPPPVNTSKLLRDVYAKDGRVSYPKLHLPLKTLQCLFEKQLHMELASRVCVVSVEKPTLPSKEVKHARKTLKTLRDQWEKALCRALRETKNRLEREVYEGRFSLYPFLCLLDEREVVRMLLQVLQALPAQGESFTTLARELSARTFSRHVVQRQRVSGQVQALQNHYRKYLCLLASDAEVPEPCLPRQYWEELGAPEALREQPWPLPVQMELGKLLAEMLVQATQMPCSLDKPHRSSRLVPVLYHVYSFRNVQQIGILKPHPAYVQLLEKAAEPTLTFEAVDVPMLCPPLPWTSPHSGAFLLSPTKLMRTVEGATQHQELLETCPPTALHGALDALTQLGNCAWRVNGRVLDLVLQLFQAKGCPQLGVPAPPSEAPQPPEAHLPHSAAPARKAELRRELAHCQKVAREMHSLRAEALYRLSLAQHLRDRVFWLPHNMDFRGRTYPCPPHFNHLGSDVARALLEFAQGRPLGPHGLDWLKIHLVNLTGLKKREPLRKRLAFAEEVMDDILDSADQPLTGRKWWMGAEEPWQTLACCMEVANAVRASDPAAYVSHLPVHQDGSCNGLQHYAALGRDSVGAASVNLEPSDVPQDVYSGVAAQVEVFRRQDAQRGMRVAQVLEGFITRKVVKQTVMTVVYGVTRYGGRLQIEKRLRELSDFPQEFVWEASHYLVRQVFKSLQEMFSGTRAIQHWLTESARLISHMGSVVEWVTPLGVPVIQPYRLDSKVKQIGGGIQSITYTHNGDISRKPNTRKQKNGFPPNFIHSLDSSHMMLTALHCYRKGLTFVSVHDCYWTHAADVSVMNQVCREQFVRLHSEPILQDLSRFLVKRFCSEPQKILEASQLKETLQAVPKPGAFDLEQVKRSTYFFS
smiles,measurement,setting,value
C[C@@]1(O)[C@H](O)[C@@H](COP(=O)(O)OP(=O)(O)OP(=O)(O)O)O[C@H]1n1cnc2c(=O)[nH]c(N)nc21 [2'-C-methyl GTP],Kpol,[1],0.051 s⁻¹
CC1(F)C(O)C(COP(=O)(O)OP(=O)(O)OP(=O)(O)O)OC1n1ccc(=O)[nH]c1=O (stereo not drawn) [2’-deoxy-2’-F-2’-C-methyl UTP],Kpol,[1],0.00034 s⁻¹
"CNc1nc(N)nc2c1ncn2[C@@H]1O[C@H](CO[P@@](=O)(N[C@@H](C)C(=O)OC(C)C)Oc2ccccc2)[C@@H](O)[C@@]1(C)F [Compound 1, isopropyl((S)-(((2R,3R,4R,5R)-5-(2-Amino-6-(methylamino)-9H-purin-9-yl)-4-fluoro-3-hydroxy-4-methyltetrahydrofuran-2-yl)methoxy)(phenoxy)phosphoryl)-L-alaninate]",AUC(0-t),[2],78.2 ng·h/mL
same,Cmax,[2],60.8 ng/mL
same,Tmax,[2],15 min
same,AUC,[3]; 50 mg,36.4 ± 12.3 ng·h/mL
same,Cmax,[3]; 50 mg,46.4 ± 17.6 ng/mL
same,Tmax,[3]; 50 mg,30 min
same,half-life,[3]; 50 mg,19.2 ± 1.2 min
same,AUC,[3]; 100 mg,167 ± 110 ng·h/mL
same,Cmax,[3]; 100 mg,156 ± 96.3 ng/mL
same,Tmax,[3]; 100 mg,30 min
same,half-life,[3]; 100 mg,31.8 ± 14.4 min
same,AUC,[3]; 200 mg,656 ± 255 ng·h/mL
same,Cmax,[3]; 200 mg,818 ± 443 ng/mL
same,Tmax,[3]; 200 mg,30 min
same,half-life,[3]; 200 mg,42.6 ± 9.6 min
same,AUC,[3]; 400 mg,1110 ± 326 ng·h/mL
same,Cmax,[3]; 400 mg,1190 ± 401 ng/mL
same,Tmax,[3]; 400 mg,30 min
same,half-life,[3]; 400 mg,51.6 ± 9 min
same,Tmax,"[4]; GT1-HCV infected patients, Compound 2 300 mg (second 300 mg line), median (range)",0.5 (0.5-1.0) h
same,AUC,[4]; [9],179 ± 54.4 ng·h/mL
same,Cmax,[4]; [9],212 ± 32 ng/mL
same,half-life,[4]; [9],32.4 ± 7.2 min
same,Tmax,"[4]; human, in vivo, 100 mg, read-out: Tmax",30 min
same,AUC,[4]; [10],818 ± 475 ng·h/mL
same,Cmax,[4]; [10],871 ± 590 ng/mL
same,half-life,[4]; [10],38.4 ± 12 min
same,AUC,[4]; [11],1860 ± 1020 ng·h/mL
same,Cmax,[4]; [11],2280 ± 893 ng/mL
same,half-life,[4]; [11],50.4 ± 10.8 min
same,Tmax,"[4]; human, in vivo, 300 mg, read-out: Tmax",30 min
same,AUC,[4]; [12],2410 ± 1010 ng·h/mL
same,Cmax,[4]; [12],2680 ± 2110 ng/mL
same,half-life,[4]; [12],51.6 ± 10.8 min
same,Tmax,"[4]; human, in vivo, 400 mg, read-out: Tmax",60 min
same,AUC,[4]; [13],4130 ± 1130 ng·h/mL
same,Cmax,[4]; [13],3540 ± 1650 ng/mL
same,half-life,[4]; [13],42 ± 7.8 min
same,Tmax,"[4]; human, in vivo, 600 mg, read-out: Tmax",60 min
same,Mean Dose-normalized AUC(0-4hr) for Compound 1,[5],0.2 µM·h
same,Appearance in solubility test,[6]; FaSSIF,Turbid
same,Solubility descriptive term,[6]; FaSSIF,Slightly Soluble
same,Appearance in solubility test,[6]; FeSSIF,Turbid
same,Solubility descriptive term,[6]; FeSSIF,Slightly Soluble
same,Appearance in solubility test,[6]; SGF,Clear Solution
same,Solubility descriptive term,[6]; SGF,Sparingly
same,Appearance in solubility test,[6]; Water,Clear Solution*
same,Solubility descriptive term,[6]; Water,Slightly Soluble
same,EC95,[7],less than 25 ng/mL
same,half-life,in vitro,< 2 min
same,AUC(0-t),[8]; 30 mg/kg,176 ng·h/mL
same,Cmax,[8]; 30 mg/kg,63.5 ng/mL
same,Tmax,[8]; 30 mg/kg,30 to 120 min
same,AUC(0-t),[8]; 100 mg/kg,1100 ng·h/mL
same,Cmax,[8]; 100 mg/kg,783 ng/mL
same,Tmax,[8]; 100 mg/kg,60 to 120 min
same,AUC(0-t),[8]; 300 mg/kg,1600 ng·h/mL
same,Cmax,[8]; 300 mg/kg,501 ng/mL
